Measured values as given in US10501441B2, “Substituted imidazolylcarboxamides as pesticides” (BAYER CROPSCIENCE AKTIENGESELLSCHAFT, priority 2016, dated 2019).
Like-named read-outs stand apart in the source and are kept apart here. Each block holds one compound with its values, some of them ahead of it.

How the values were obtained:
[1] = log P by reversed-phase HPLC (C18), EEC directive 79/831 Annex V.A8, neutral range; format: physicochemical; settings: pH 7.8; for chromatographic logP: reversed-phase HPLC column (C18), read-out: Logp [n]
Description: a) The log P values reported in the tables and preparation examples above were determined in accordance with EEC directive 79/831 Annex V.A8 by HPLC (High Performance Liquid Chromatography) using a reversed-phase column (C18). Temperature 43° C. The calibration is effected with unbranched alkan-2-ones (having 3 to 16 carbon atoms), for which the log P values are known. […] The log P values for the acidic range (as log P [a]) and/or for the neutral range (as log P [n]) were stated in the tables and preparation examples above.

[2] = test system: Myzus persicae; assay: Myzus persicae - spray test (MYZUPE); format: in vivo; settings: for efficacy (aphids killed) / pest or weed control at 500 g/ha: 500 g/ha, Chinese cabbage leaf discs, after 5-6 days; for Emax at 100 g/ha / pest or weed control at 500 g/ha: Myzus persicae; for Emax at 100 g/ha: MYZUPE, 100 g of ai/ha, read-out: % efficacy; for pest or weed control at 500 g/ha: foliar, read-out: efficacy (aphids killed)
Description: Myzus persicae—Spray Test
Solvents: 78 parts by weight of acetone • • 1.5 parts by weight of dimethylformamide
(§1) Emulsifier: alkylaryl polyglycol ether
After 5-6 days, the efficacy in % is determined. 100% means that all the aphids have been killed; 0% means that no aphids have been killed.
Myzus persicae—Spray Test (MYZUPE)
(§2) Solvents: 78.0 parts by weight of acetone • • 1.5 parts by weight of dimethylformamide
(§3) After the desired period of time (dat), the efficacy in % is determined. 100% means that all the aphids have been killed; 0% means that no aphids have been killed.

[3] = test system: Myzus persicae; assay: Myzus persicae - oral test (MYZUPE O); format: in vivo; settings: for efficacy (aphids killed) / pest or weed control at 20 ppm: 20 ppm, after 5 days; for pest or weed control at 20 ppm / Emax at 0.8 ppm / Emax at 4 ppm: Myzus persicae, po, 120 h; for pest or weed control at 20 ppm: read-out: efficacy (aphids killed); for Emax at 0.8 ppm / Emax at 4 ppm: MYZUPE O, 5 dat, read-out: % efficacy
Description: Solvent: 100 parts by weight of acetone
50 μl of the active compound preparation are transferred into microtitre plates and made up to a final volume of 200 μl with 150 μl of IPL41 insect medium (33%+15% sugar). Subsequently, the plates are sealed with parafilm, which a mixed population of green peach aphids (Myzus persicae) within a second microtitre plate is able to puncture and imbibe the solution through it.
After 5 days, the efficacy in % is determined. 100% means that all the aphids have been killed; 0% means that no aphids have been killed.
Myzus persicae—Oral Test (MYZUPE O)
as §3

[4] = test system: Boophilus microplus; assay: Boophilus microplus - injection test; format: in vivo; settings: 20 μg/animal, engorged adult female cattle ticks, after 7 days
Description: Boophilus microplus—Injection Test
Solvent: dimethyl sulphoxide
To produce a suitable preparation of active compound, 10 mg of active compound are mixed with 0.5 ml of solvent and the concentrate is diluted with solvent to the desired concentration.
1 μl of the active compound solution is injected into the abdomen of 5 engorged adult female cattle ticks (Boophilus microplus). The animals are transferred into dishes and kept in a climate-controlled room.
Efficacy is assessed after 7 days by laying of fertile eggs. Eggs which are not visibly fertile are stored in a climate-controlled cabinet until the larvae hatch after about 42 days. An efficacy of 100% means that none of the ticks has laid any fertile eggs; 0% means that all the eggs are fertile.

[5] = test system: Tetranychus urticae; assay: Tetranychus urticae - spray test, OP-resistant (TETRUR); format: in vivo; settings: for Emax at 500 g/ha: Tetranychus urticae, 144 h, TETRUR, 6 dat, read-out: % efficacy; for efficacy (spider mites killed): 500 g/ha, bean leaf discs, after 6 days
Description: Tetranychus urticae—Spray Test, OP-Resistant
as §2, §1
After 6 days, the efficacy in % is determined. 100% means that all the spider mites have been killed; 0% means that no spider mites have been killed.
Tetranychus urticae—Spray Test; OP Resistant (TETRUR)
After the desired period of time (dat), the efficacy in % is determined. 100% means that all the spider mites have been killed; 0% means that none of the spider mites have been killed.

[6] = neutral range, HPLC C18, 43° C.

Compound: CN(C(=O)c1cnc(-n2cc(C(F)(F)F)cn2)n1C)c1cccnc1 [I-1-006]
chromatographic logP [1, 6]: 1.82 | Emax at 100 g/ha ([2]; 144 h, 6 dat): 100% | pest or weed control at 500 g/ha [2]: 100% | pest or weed control at 20 ppm [3]: 100% | Emax at 0.8 ppm [3]: 100%

Compound: CN(C(=O)c1cnc(N2CCC(c3ccccc3)CC2)n1C)c1cccnc1 [I-1-018]
Logp [n] [1, 6]: 2.38 | efficacy (aphids killed) [2]: 100% | efficacy (aphids killed) [3]: 100%

Compound: CN(C(=O)c1cnc(Cl)n1C)c1cccnc1 [2-Chloro-N, 1-dimethyl-N-(pyridin-3-yl)-1H-imidazole-5-carboxamide]
chromatographic logP [1, 6]: 0.88

Compound: CN(C(=O)c1cnc(-n2ccnc2)n1C)c1cccnc1 [I-1-025]
Logp [n] [1]: 0.56

Compound: CN(C(=O)c1cnc(-n2cccn2)n1C)c1cccnc1 [I-1-002]
Logp [n] [1, 6]: 1.01 | efficacy (aphids killed) [2]: 90% | efficacy (aphids killed) [3]: 100%

Compound: CN(C(=O)c1cnc(-n2ccc(Cl)n2)n1C)c1cccnc1 [I-1-004]
chromatographic logP [1, 6]: 1.48 | Emax at 100 g/ha ([2]; 144 h, 6 dat): 90% | pest or weed control at 500 g/ha [2]: 100% | pest or weed control at 20 ppm [3]: 100% | Emax at 0.8 ppm [3]: 100% | Emax at 4 ppm [3]: 100%

Compound: CN(C(=O)c1cnc(-n2cc(Cl)cn2)n1C)c1cccnc1 [I-1-005]
Logp [n] [1, 6]: 1.49 | efficacy (aphids killed) [2]: 90% | efficacy (aphids killed) [3]: 100%

Compound: CN(C(=O)c1cnc(N2CCCC2)n1C)c1cccnc1 [I-1-019]
Logp [n] [1]: 1.19 | efficacy (aphids killed) [2]: 100% | efficacy (aphids killed) [3]: 100%

Compound: CN(C(=O)c1cnc(-n2ccc(C(F)(F)F)n2)n1C)c1cccnc1 [I-1-007, N,1-dimethyl-N-(pyridin-3-yl)-2-[3-(trifluoromethyl)-1H-pyrazol-1-yl]-1H-imidazole-5-carboxamide]
chromatographic logP [1, 6]: 1.87 | pest or weed control at 500 g/ha [2]: 100% | pest or weed control at 20 ppm [3]: 100%

Compound: COc1ncn(-c2ncc(C(=O)N(C)c3cccnc3)n2C)n1 [I-1-011]
Emax at 100 g/ha ([2]; 120 h, 5 dat): 70% | Emax at 0.8 ppm [3]: 90% | Emax at 4 ppm [3]: 90%

Compound: CN(C(=O)c1cnc(-n2cccc2)n1C)c1cccnc1 [I-1-001]
chromatographic logP [1, 6]: 1.27 | Emax at 100 g/ha ([2]; 144 h, 6 dat): 90% | pest or weed control at 500 g/ha [2]: 90% | pest or weed control at 20 ppm [3]: 100% | Emax at 0.8 ppm [3]: 100% | Emax at 4 ppm [3]: 100%

Compound: O=C(Nc1cccnc1)c1c[nH]cn1 [Ex. No. 13 WO2011/009804, reference compound]
Emax at 100 g/ha ([2]; 144 h, 6 dat): 0% | Emax at 0.8 ppm [3]: 0% | Emax at 4 ppm [3]: 0% | Emax at 500 g/ha [5]: 0%

Compound: CN(C(=O)c1cnc(-n2cc(C#N)cn2)n1C)c1cccnc1 [I-1-008]
Logp [n] [1, 6]: 1.14 | efficacy (aphids killed) [2]: 100% | efficacy (aphids killed) [3]: 100%

Compound: CN(C(=O)c1cnc(-n2ccc(C#N)n2)n1C)c1cccnc1 [I-1-003]
Logp [n] [1, 6]: 1.31 | efficacy (aphids killed) [2]: 90% | efficacy (aphids killed) [3]: 100%

Compound: CCN(C(=O)c1cnc(-n2cc(C#N)cn2)n1C)c1cccnc1 [I-1-015]
chromatographic logP [1, 6]: 1.42 | pest or weed control at 500 g/ha [2]: 90% | pest or weed control at 20 ppm [3]: 100% | Emax at 0.8 ppm [3]: 100% | Emax at 4 ppm [3]: 100% | efficacy (spider mites killed) [5]: 90% | Emax at 500 g/ha [5]: 90%

Compound: CN(C(=O)c1cnc(N2CCCCC2)n1C)c1cccnc1 [I-1-013]
Logp [n] [1, 6]: 1.53 | efficacy (aphids killed) [2]: 100% | efficacy (aphids killed) [3]: 100%

Compound: Cc1nc(C(=O)Nc2cccnc2)c[nH]1 [Ex. No. 14 WO2011/009804, reference compound]
Emax at 100 g/ha ([2]; 5/6 dat): 0% | Emax at 0.8 ppm [3]: 0% | Emax at 4 ppm [3]: 0% | Emax at 500 g/ha [5]: 0%

Further lines, with some results ahead:

Logp [n] [1, 6]: 2.09
Compound: CCN(C(=O)c1cnc(-n2cc(C(F)(F)F)cn2)n1C)c1cccnc1 [I-1-014]
efficacy (aphids killed) [2]: 90% | efficacy (aphids killed) [3]: 100%

Logp [n] [1, 6]: 1.27
Compound: CSc1ncn(-c2ncc(C(=O)N(C)c3cccnc3)n2C)n1 [I-1-011]
efficacy (aphids killed) [2]: 100% | efficacy (aphids killed) [3]: 100%

chromatographic logP [1, 6]: 1.16
Compound: CN(C(=O)c1cnc(N2CCC(C#N)CC2)n1C)c1cccnc1 [I-1-017]
Emax at 100 g/ha ([2]; 120 h, 5 dat): 90% | pest or weed control at 500 g/ha [2]: 100% | pest or weed control at 20 ppm [3]: 100% | Emax at 0.8 ppm [3]: 100% | Emax at 4 ppm [3]: 100%

Logp [n] [1, 6]: 1.18
Compound: Cc1ccn(-c2ncc(C(=O)N(C)c3cccnc3)n2C)n1 [I-1-024]

Logp [n] [1, 6]: 2.21
Compound: CC1CC(C)CN(c2ncc(C(=O)N(C)c3cccnc3)n2C)C1 (centres unmarked) [I-1-020]
efficacy (aphids killed) [2]: 100% | efficacy (aphids killed) [3]: 100%

Logp [n] [1, 6]: 1.84
Compound: CC(C)c1cnn(-c2ncc(C(=O)N(C)c3cccnc3)n2C)c1 [I-1-030]

Logp [n] [1, 6]: 1.53
Compound: CCN(C(=O)c1cnc(-n2ccc(C#N)n2)n1C)c1cccnc1 [I-1-029]

Logp [n] [1, 6]: 1.5
Compound: CN(C(=O)c1cnc(-n2cc3c(n2)CCC3)n1C)c1cccnc1 [I-1-027]

Logp [n] [1, 6]: 1.22
Compound: CN(C(=O)c1cnc(-n2cnc(C#N)n2)n1C)c1cccnc1 [I-1-031]
efficacy (laying of fertile eggs) [4]: 80%

Logp [n] [1, 6]: 1.17
Compound: CN(C(=O)c1cnc(-n2cnc(Cl)n2)n1C)c1cccnc1 [I-1-026]

Logp [n] [1, 6]: 1.87
Compound: CC1CCN(c2ncc(C(=O)N(C)c3cccnc3)n2C)CC1 [I-1-016]
efficacy (aphids killed) [2]: 90% | efficacy (aphids killed) [3]: 100%

Logp [n] [1, 6]: 1.57
Compound: CSc1ccn(-c2ncc(C(=O)N(C)c3cccnc3)n2C)n1 [I-1-012]
efficacy (aphids killed) [2]: 90% | efficacy (aphids killed) [3]: 100%

chromatographic logP [1, 6]: 0.85
Compound: CN(C(=O)c1cnc(N2CCOCC2)n1C)c1cccnc1 [I-1-009, N,1-Dimethyl-2-(morpholin-4-yl)-N-(pyridin-3-yl)-1H-imidazole-5-carboxamide]
Emax at 100 g/ha ([2]; 144 h, 6 dat): 70% | pest or weed control at 500 g/ha [2]: 100% | pest or weed control at 20 ppm [3]: 100% | Emax at 0.8 ppm [3]: 70% | efficacy (spider mites killed) [5]: 90% | Emax at 500 g/ha [5]: 90%

Logp [n] [1, 6]: 1.29
Compound: Cc1cnn(-c2ncc(C(=O)N(C)c3cccnc3)n2C)c1 [I-1-021]
efficacy (aphids killed) [2]: 100% | efficacy (aphids killed) [3]: 100%

Logp [n] [1, 6]: 1.42
Compound: Cc1cn(-c2ncc(C(=O)N(C)c3cccnc3)n2C)nc1C [I-1-023]

Logp [n] [1, 6]: 0.78
Compound: CN(C(=O)c1cnc(-n2ncc(C#N)c2N)n1C)c1cccnc1 [I-1-028]

chromatographic logP [1, 6]: 1.38
Compound: CN(C(=O)c1cnc(-n2cnc(C(F)(F)F)c2)n1C)c1cccnc1 [I-1-010]
Emax at 100 g/ha ([2]; 144 h, 6 dat): 70% | pest or weed control at 500 g/ha [2]: 100% | pest or weed control at 20 ppm [3]: 100% | Emax at 0.8 ppm [3]: 100% | Emax at 4 ppm [3]: 100%
